A word on the pKi: it is the Ki on a negative log10 scale, so that one unit is a factor of ten.

For assay [1], the target named is T1, human recombinant GHS receptor (Homo sapiens, UniProt Q92847).
T1 construct: The full length human GHS-R was subcloned into the mammalian expression vector pcDNA 3.1; expressed in transfected cells; membrane homogenates used
Briefly: GHS-receptor binding assay, (125I)ghrelin displacement. The note with it: 0.05 nM (125I)ghrelin, membranes of CHO-K1 cells expressing human recombinant GHS receptor, 60 min at 4° C.
Method: Membranes for radioligand binding studies can be and were prepared by homogenization of the foregoing CHO-K1 cells expressing the human recombinant GHS receptor. The cells were homogenized in 20 ml of ice-cold 50 mM Tris-HCl using a Brinkman Polytron® (Westbury, N.Y.; setting 6, 15 sec). The homogenates were washed twice by centrifugation (39,000 g/10 min) and the final pellets were resuspended in 50 mM Tris-HCl containing 2.5 mM MgCl2 and 0.1% bovine serum albumin (BSA).

Assay [2] has as its system male Sprague Dawley rats. Nature of the assay: In vivo gastric emptying, intravenous administration, phenol red meal. Set-up: species or system rat. As to conditions: fasted anesthetized rats, administered intravenously. The procedure:
Selected compounds of the invention can be and were tested to determine the effect of the compounds upon gastric emptying. […] Native ghrelin, the selected ghrelin analog and a metoclopramide control compound were administered intravenously to anesthetized test subjects. Approximately five minutes after the initial administration of native ghrelin, the selected ghrelin analog or the control compound, a 1.5 ml meal marked with phenol red (0.5 mg/ml phenol red and 1.5% methyl cellulose in whole milk) was administered to each test subject by esophageal gavage. After approximately an additional 20 minutes, the test subjects were sacrificed by cervical rupture and the stomachs removed and individually pulverized. The residual phenol red in the stomach of the test subjects was extracted and was measured spectrophometrically at a wavelength of 560 nm.

In assay [3] the test system is male Sprague Dawley rats. Briefly: Effect on POI in rat (laparotomy-induced gastric ileus), gastric emptying. Type of assay: in vivo. As to conditions: 3 centimeter laparotomy, administered subcutaneously.
For assay [4], the system named is rats. Briefly: In vivo study on intestinal transit, charcoal meal. The arrangement: species or system rat. The note with it: fasted anesthetized rats, charcoal meal by esophageal gavage. The procedure: In the study, groups of eight rats were fasted for approximately 24 hours with free access to water. Anesthetized test subjects were administered native ghrelin, the selected analog and atropine as a control. The test subjects were administered a 2 ml charcoal meal by esophageal gavage approximately five minutes after the initial administration of ghrelin, the selected analog or atropine. After approximately an additional 25 minutes, the test subjects were sacrificed by cervical rupture and the small intestines were removed. The distance the charcoal traveled was measured from the pylorus.

Assay [5] relates to male Sprague Dawley rats. Nature of the assay: In vivo gastric emptying, subcutaneous administration, phenol red meal. The arrangement: species or system rat. The note with it: fasted rats, injected subcutaneously, varying doses. As for the experimental part: The animals were injected subcutaneously with either vehicle or varying doses of native ghrelin or selected ghrelin analogs. After approximately 15 minutes, 1.5 ml of a phenol red marked nutrient meal (0.5 mg/ml phenol red & 1.5% methyl cellulose in whole milk) was administered orally to the rats. […] The residual phenol red in the stomach was extracted and measured by spectrophotometric methods at a wavelength of 560 nm. […] (see Figures)

For assay [6], the system named is rats. As to conditions: post-operative ileus model; cited from earlier work.
The test system of assay [7] is Ferrets. As to conditions: ferrets exposed to cisplatin, intracerebroventricular administration; cited from earlier work.
For assay [8], the system named is mice. The note with it: cited from earlier work.
Assay [9] has as its system patients with diabetic gastroparesis. As to conditions: cited from earlier work.
In assay [10] the test system is septic mice. As to conditions: cited from earlier work.
Assay [11] relates to rats. As to conditions: cited from earlier work.
Assay [12] concerns laparectomized dogs. The note with it: cited from earlier work.

pKi: −log10 of the molar value. Non-standard residues stand in square brackets, D forms with d. Residues, ends and D or L forms follow the SMILES beside them. No end group written: not given here. Ala(4-thiazolyl) = N[C@@H](Cc1cscn1)C(=O)O; d2Nal = N[C@H](Cc1ccc2ccccc2c1)C(=O)O; dBta = N[C@H](Cc1csc2ccccc12)C(=O)O; Api = NC1(C(=O)O)CCNCC1; Inp = O=C(O)C1CCNCC1

T1 sequence (Q92847 whole entry): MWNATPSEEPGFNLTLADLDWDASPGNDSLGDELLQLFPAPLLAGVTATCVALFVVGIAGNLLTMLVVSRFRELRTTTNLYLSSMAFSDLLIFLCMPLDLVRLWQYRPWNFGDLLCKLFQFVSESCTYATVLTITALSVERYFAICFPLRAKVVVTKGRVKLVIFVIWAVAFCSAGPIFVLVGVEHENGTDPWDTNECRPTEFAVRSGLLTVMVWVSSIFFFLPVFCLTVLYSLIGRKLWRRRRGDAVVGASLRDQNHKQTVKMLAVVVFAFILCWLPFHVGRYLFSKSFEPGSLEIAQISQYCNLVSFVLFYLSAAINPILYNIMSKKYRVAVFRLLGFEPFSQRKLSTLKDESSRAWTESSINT

For `NCCCC[C@H](NC(=O)[C@H](Cc1ccccc1)NC(=O)[C@@H](Cc1c[nH]c2ccccc12)NC(=O)[C@@H](Cc1ccc2ccccc2c1)NC(=O)C1CCNCC1)C(N)=O` [Example #2, Inp-D-2-Nal-D-Trp-Phe-Lys-NH2] (HELM PEPTIDE1{[O=C(C1CCNCC1)[*:2]].[O=C([C@@H](Cc1ccc2ccccc2c1)N[*:1])[*:2]].[dW].F.K.[am]}$$$$V2.0), the pKi in assay [1] is 9.52.
Turning to `NC(=O)C1(NC(=O)[C@H](Cc2ccccc2)NC(=O)[C@@H](Cc2c[nH]c3ccccc23)NC(=O)[C@@H](Cc2csc3ccccc23)NC(=O)C2CCNCC2)CCNCC1` [Example #19, H-Inp-D-Bal-D-Trp-Phe-Apc-NH2] (H-[Inp][dBta][dW]F[Api]-NH2), the “effect on gastric emptying (residual phenol red in stomach)” value in [2] and in assay [5] was “accelerated gastric emptying” each time. Moreover, in assay [3], the “effect on gastric emptying under post-operative ileus conditions” value was “significantly accelerated gastric emptying”. In addition, in assay [4], the “effect on intestinal transit (distance the charcoal traveled from the pylorus)” value is on record as “accelerated gastric intestinal transit”.
For the molecule `NCCCC[C@H](NC(=O)[C@H](Cc1cscn1)NC(=O)[C@@H](Cc1c[nH]c2ccccc12)NC(=O)[C@@H](Cc1ccc2ccccc2c1)NC(=O)C1CCNCC1)C(N)=O` [Example #37, H-Inp-D-2-Nal-D-Trp-Taz-Lys-NH2] (H-[Inp][d2Nal][dW][Ala(4-thiazolyl)]K-NH2), in [1], the negative-log Ki (pKi) is 9.10.
Regarding “H-Gly-Ser-Ser-Phe-Leu-Ser-Pro-Glu-His-Gln-Arg-Val-Gln-Gln-Arg-Lys-Glu-Ser-Lys-Lys-Pro-Pro-Ala-Lys-Leu-Gln-Pro-Arg-NH2 (H-GSSFLSPEHQRVQQRKESKKPPAKLQPR-NH2) [ghrelin, orexigenic hormone, native ligand for the GHS receptor]”, the “effect on gastric emptying (residual phenol red in stomach)” value in assay [2] and in [5] was “accelerated gastric emptying” each time. Further, in assay [6], the “effect on delay of gastric emptying” value was “reverse the delay of gastric emptying”. In assay [7], the “occurrences of retching and vomiting” value was “significantly reduced occurrences of retching and vomiting”. Besides, the “effect on gastric emptying” value is “accelerate gastric emptying” in [8], “increase gastric emptying” in assay [9], “accelerated gastric emptying” in assay [10] and “accelerate gastric emptying” in [11]. The “effect on gastric emptying under post-operative ileus conditions” value in assay [3] was “significantly accelerated gastric emptying”. Also, the “effect on transit in the small intestine” value in assay [10] is listed as “little effect upon increasing transit in the small intestine”. The “effect on intestinal transit (distance the charcoal traveled from the pylorus)” value in assay [4] was “accelerated gastric intestinal transit”. The “effect on POI” value in [12] was “improve POI”.
“His-D-Trp-Ala-Trp-D-Phe-Lys-amide (H[dW]AW[dF]K-NH2) [GHRP-6]”: the “effect on gastric emptying” value in assay [8] is “accelerate gastric emptying”; in assay [10], “accelerated gastric emptying”; in assay [11] it was “accelerate gastric emptying”. Besides, in assay [10], the “effect on transit in the small intestine” value is given as “little effect upon increasing transit in the small intestine”.

(Values after patent US9499599B2, “Composition and methods for stimulating gastrointestinal motility” (Ipsen Pharma S.A.S., priority 2005, dated 2016).)
